Results reported in ChEMBL document CHEMBL2074030, “The systemic exposure of an N-methyl-D-aspartate receptor antagonist is limited in mice by the P-glycoprotein and breast cancer resistance protein efflux transporters” (Drug Metab Dispos, 2004).

Biological target: ATP-dependent translocase ABCB1 (Mus musculus, UniProt P21447)
Assay: TP_TRANSPORTER: transepithelial transport (apical to basal) in Mdr1a-expressing LLC-PK1 cells
Assay type: functional, cell-based
Conditions: pig

Chain of ATP-dependent translocase ABCB1 (P21447 whole entry): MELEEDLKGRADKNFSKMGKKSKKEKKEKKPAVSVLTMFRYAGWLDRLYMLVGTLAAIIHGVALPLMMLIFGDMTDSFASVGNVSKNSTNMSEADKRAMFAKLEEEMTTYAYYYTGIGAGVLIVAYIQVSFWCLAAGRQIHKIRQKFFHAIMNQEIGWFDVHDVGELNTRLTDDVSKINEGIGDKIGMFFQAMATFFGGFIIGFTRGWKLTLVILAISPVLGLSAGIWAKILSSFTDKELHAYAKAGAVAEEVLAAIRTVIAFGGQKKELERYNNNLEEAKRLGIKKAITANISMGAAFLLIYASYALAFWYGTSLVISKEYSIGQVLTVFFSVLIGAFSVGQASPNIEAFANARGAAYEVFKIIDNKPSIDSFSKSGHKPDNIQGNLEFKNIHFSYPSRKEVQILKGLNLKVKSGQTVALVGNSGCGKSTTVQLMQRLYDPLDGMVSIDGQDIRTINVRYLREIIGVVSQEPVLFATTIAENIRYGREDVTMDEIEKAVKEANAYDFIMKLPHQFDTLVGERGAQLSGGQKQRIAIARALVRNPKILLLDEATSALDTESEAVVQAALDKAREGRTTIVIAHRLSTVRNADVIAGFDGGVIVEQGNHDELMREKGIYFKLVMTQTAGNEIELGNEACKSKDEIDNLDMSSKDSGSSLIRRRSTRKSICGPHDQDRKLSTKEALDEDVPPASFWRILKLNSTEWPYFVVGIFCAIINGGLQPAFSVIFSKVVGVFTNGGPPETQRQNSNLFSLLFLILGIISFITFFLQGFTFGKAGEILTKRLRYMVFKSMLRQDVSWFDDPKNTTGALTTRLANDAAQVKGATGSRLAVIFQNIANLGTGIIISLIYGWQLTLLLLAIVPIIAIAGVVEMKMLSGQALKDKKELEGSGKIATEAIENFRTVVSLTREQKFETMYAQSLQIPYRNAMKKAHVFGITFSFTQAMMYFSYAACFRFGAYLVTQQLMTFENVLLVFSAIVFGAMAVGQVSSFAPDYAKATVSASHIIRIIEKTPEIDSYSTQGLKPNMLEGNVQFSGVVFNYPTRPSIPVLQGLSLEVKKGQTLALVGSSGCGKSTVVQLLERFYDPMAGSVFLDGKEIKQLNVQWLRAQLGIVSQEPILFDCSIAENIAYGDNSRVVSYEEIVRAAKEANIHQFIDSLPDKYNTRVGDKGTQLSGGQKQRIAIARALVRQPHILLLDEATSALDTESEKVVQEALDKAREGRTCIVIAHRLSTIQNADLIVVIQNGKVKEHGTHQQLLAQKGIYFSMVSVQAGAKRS

SMILES | Activity
O=C(O)c1[nH]c2cc(Cl)cc(Cl)c2c1/C=C1\CCN(c2ccccc2)C1=O | is not a substrate [-]
CC(C)CN(C[C@@H](O)[C@H](Cc1ccccc1)NC(=O)O[C@H]1CCOC1)S(=O)(=O)c1ccc(N)cc1 [AMPRENAVIR] | substrate [+]
